Tests used:
Type in all cases: cell-based, human
[1] = test system: BAF47 within the BAF complex; experiment: BAF155 immunoprecipitation and western blot for BAF47 in Aska cells; conditions: for BAF47 stabilization within the BAF complex (BAF155 immunoprecipitation): Aska cells, twenty-four hours, single 30 micromolar dose
Description: These include resynthesized positive hits for Compounds 5-6.
FIG. 8 comprises a series of images and graph illustrating the activity of Compound 5 in Yamato cells. Briefly, Yamato cells were treated with 30 μM compound for 24 hours over n=5 replicates. The graph depicts levels of BAF47 in DMSO treated vs Compound 5-treated cells.
(§1) All cell types were grown under standard conditions and lysed and homogenized in Buffer A (10 mM Hepes (pH 7.6), 25 mM KCl, 1 mM EDTA, 10% glycerol, 1 mM DTT, and protease inhibitors (complete mini tablets (Roche) supplemented with 1 mM PMSF) on ice. Nuclei were sedimented by centrifugation (1,000×g), resuspended in Buffer C (10 mM Hepes (pH 7.6), 3 mM MgCl2, 100 mM KCl, 0.1 mM EDTA, 10% glycerol, 1 mM DTT, and protease inhibitors), and lysed by the addition of ammonium sulfate to a final concentration of 0.3 M. Soluble nuclear proteins were separated by the insoluble chromatin fraction by ultracentrifugation (100,000×g) and precipitated with […] ammonium sulfate for 20 min on ice. Protein precipitate was isolated by ultracentrifugation (100,000×g), and resuspended in IP buffer (150 mM NaCl, 50 mM Tris-HCl (pH 8.0), 1% NonidetP-40, 0.5% deoxycholate, 1 mM DTT, 1 mM PMSF with protease inhibitors) for immunoprecipitation analyses or HEMG-0 buffer (25 mM HEPES pH 7.9, 0.1 mM EDTA, 12.5 mM MgCl2, 100 mM KCl, freshly supplemented with DTT and PMSF) for glycerol gradient analyses.
(§2) Nuclear extracts were resuspended in IP buffer and precleared for 30 minutes at 4 degrees C. using Protein G/A Sepharose beads (GE Healthcare). The protein concentration was determined using Bradford assay and adjusted to a final volume of 250 μL at a final concentration of 1.5 mg/mL with IP buffer. Each IP was incubated with 2.5 μg of antibody overnight at 4° C. and then for 2 h with 20 μL Protein A/G Sepharose beads. The beads were washed four times at room temperature with 1 mL IP buffer and resuspended in 20 μL 2× gel loading buffer (4×LDS Buffer; Invitrogen)+DTT.

BAF47 = experiment: Time and dose study of Compound 11 on BAF47 stability in Aska cells; conditions: 0-30 micromolar, 24, 48 and 72 hours
Description: FIG. 9 comprises a set of bar graphs illustrating the effects of Compound 11 (illustrated), the lead compound lacking the hydroxyl group, as a function of time and dose in Aska cells.
Compound 11 was added at doses from 0-30 micromolar, and the results monitored at 24, 48, and 72 hours after treatment.

[2] = test system: BAF47 within the BAF complex; experiment: anti-Brg immunoprecipitation of BAF complexes followed by anti-BAF47 western blot in Aska cells; conditions: 48 hours at 16 μM, relative to DMSO control
Description: Briefly, naïve, unmodified Aska SS cells were treated for 48 hours at 16 μM concentration of all 5 positive hit compounds (as well as negative compounds for controls). The western blot reflects IPs of BAF complexes highlighting increased incorporation/stability of BAF47 relative to DMSO control. The bar graph highlights levels of BAF47 (measured via western blot quantitative densitometry) over n=3 experiments for each compound, including testing against three other negative compounds.
as §1, §2

[3] = test system: Aska synovial sarcoma cells; experiment: Synovial sarcoma cell viability by CellTiter Glo luminescence
Description: FIGS. 15A-15C comprise a set of graphs illustrating the finding that compounds of the invention reduce synovial sarcoma cell viability as measured by CellTiter Glog luminescence.
The effect of compounds of the invention on synovial sarcoma cell viability was assessed as measured by CellTiter Glo® luminescence (FIGS. 15A-15B). Briefly, cells were plated under standard conditions and allowed to grow to 75% confluence prior to treatment with compounds. CellTiterGlo reagent was used to measure cell viability.

How did the “BAF47 stabilization within the BAF complex (BAF155 immunoprecipitation)” value [1] turn out when `COc1ccc2c3c([nH]c2c1)CN(Cc1ccccc1F)CC31CCN(C(=O)C2CCC2)CC1` [Compound 11, cyclobutyl(2′-(2-fluorobenzyl)-7′-methoxy-1′,2′,3′,9′-tetrahydrospiro[piperidine-4,4′-pyrido[3,4-b]indol]-1-yl)methanone] was run?
The value was “stabilized BAF47 within the BAF complex”.

What about the “BAF47 stability as a function of time and dose” value (BAF47) of the same molecule?
Its value is “increases BAF47 stability in dose-dependent manner”.

Which “BAF47 stabilization (anti-Brg IP, anti-BAF47 western blot)” value [2] does the source give for `C[C@@H]1CN([C@H](C)CO)C(=O)c2cccc(NC(=O)c3ccc(-c4nccs4)cc3)c2O[C@@H]1CN(C)Cc1ccc(C(=O)Nc2ccccc2N)cc1` [Compound 1, N-(2-aminophenyl)-4-(((((2S,3R)-5-((R)-1-hydroxypropan-2-yl)-3-methyl-6-oxo-10-(4-(thiazol-2-yl)benzamido)-3,4,5,6-tetrahydro-2H-benzo[b][1,5]oxazocin-2-yl)methyl)(methyl)amino)methyl)benzamide] here?
Its value is “stabilized BAF47”.

How did the “BAF47 stabilization (anti-Brg IP, anti-BAF47 western blot)” value [2] turn out when `C[C@@H]1CCCCO[C@@H](CN(C)Cc2ccc(C(=O)Nc3ccccc3N)cc2)[C@H]2C[C@@H](CO)N(C2)C(=O)c2cc(N(C)C)ccc2O1` [Compound 8, N-(2-aminophenyl)-4-(((((13S,15R,5R,11R)-35-(dimethylamino)-15-(hydroxymethyl)-5-methyl-2-oxo-4,10-dioxa-1(1,3)-pyrrolidina-3(1,2)-benzenacycloundecaphane-11-yl)methyl)(methyl)amino)methyl)benzamide] was run?
Its value is “stabilized BAF47”.

For `COc1ccc2c3c([nH]c2c1)[C@@H](CO)N(Cc1ccccc1F)CC31CCN(C(=O)C2CCC2)CC1` [Compound 5, (S)-cyclobutyl(2′-(2-fluorobenzyl)-1′-(hydroxymethyl)-7′-methoxy-1′,2′,3′,9′-tetrahydrospiro[piperidine-4,4′-pyrido[3,4-b]indol]-1-yl)methanone], which “BAF47 stabilization (anti-Brg IP, anti-BAF47 western blot)” value [2] is on record?
Its value is “stabilized BAF47”.

What about the “BAF47 stabilization within the BAF complex (BAF155 immunoprecipitation)” value [1] of the same molecule?
The value was “stabilized BAF47 within the BAF complex”.

And the “BAF47 stabilization (western blot image, FIG. 8 lower panel)” value ([1]; Aska-SS cells upon treatment with Compound 5)?
The value was “stabilization of BAF47”.

What about the “Cell viability (CellTiter Glo luminescence)” value [3] of the same molecule?
Its value is “resulted in cell toxicity”.

For `C[C@@H]1CN([C@H](C)CO)C(=O)c2cc(NC(=O)NC3CCCCC3)ccc2O[C@@H]1CN(C)S(=O)(=O)c1cccs1` [Compound 3, N-(((2S,3R)-8-(3-cyclohexylureido)-5-((R)-1-hydroxypropan-2-yl)-3-methyl-6-oxo-3,4,5,6-tetrahydro-2H-benzo[b][1,5]oxazocin-2-yl)methyl)-N-methylthiophene-2-sulfonamide], which “BAF47 stabilization (anti-Brg IP, anti-BAF47 western blot)” value [2] is on record?
The value was “stabilized BAF47”.
